The values that follow come from patent US7910588B2, “5-HT7 receptor antagonists” (Eli Lilly and Company, priority 2007, dated 2011).

Structures are written as SMILES. Where only a bound is given, the exact number is not on record here.

Assay [1] addresses T1, 5-HT1D (Homo sapiens, UniProt P28221).
T1 construct: expressed in transfected cells
The assay can be described thus: Radioligand binding assay, 5-HT1D. The procedure: (§1) [^3H] […] The reactions are incubated at room temperature for 3 hr. and then counted in a Trilux Microbeta™ scintillation counter to detect receptor-bound radioligand. Binding data are analyzed by computer-assisted 4 parameter fit analysis (ID Business Solutions Ltd, Guildford, Surrey, UK). […]
(§2) Affinity for other serotonin receptor subtypes as well as for alpha 1 & 2 adrenergic receptors can readily be determined by modification of the above described radioligand receptor binding assay using membranes derived from cells stably expressing the desired receptor subtype including the 5-HT1A, 5-HT1B, and 5-HT1D subtypes, as well as the 5-HT2A, 5-HT2B, 5-HT2C, 5-HT4, 5-HT7, and 5-HT6 receptor subtypes. […]

The target of assay [2] is T2, 5-HT2C (Homo sapiens, UniProt P28335).
T2 construct: expressed in transfected cells
T2 sequence (P28335 33-458): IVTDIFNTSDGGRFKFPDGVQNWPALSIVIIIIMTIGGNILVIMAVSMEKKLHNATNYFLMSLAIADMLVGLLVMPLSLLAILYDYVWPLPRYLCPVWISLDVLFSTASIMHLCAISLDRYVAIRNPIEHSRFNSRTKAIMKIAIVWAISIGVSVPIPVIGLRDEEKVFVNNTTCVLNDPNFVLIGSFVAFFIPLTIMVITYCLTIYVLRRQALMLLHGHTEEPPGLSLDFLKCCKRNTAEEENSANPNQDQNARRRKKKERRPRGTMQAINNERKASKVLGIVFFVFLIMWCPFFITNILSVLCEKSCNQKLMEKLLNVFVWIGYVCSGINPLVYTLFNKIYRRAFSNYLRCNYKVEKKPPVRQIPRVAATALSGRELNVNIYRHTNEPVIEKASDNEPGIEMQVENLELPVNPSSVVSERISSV
The experiment in a line: Radioligand binding assay, 5-HT2C. The protocol: as §1, §2

Assay [3] deals with T3, 5-HT5 (Homo sapiens, UniProt P47898).
T3 construct: expressed in transfected cells
The assay can be described thus: Radioligand binding assay, 5-HT5. The procedure:
as §1, §2

T1 sequence (P28221 whole entry, species assumed): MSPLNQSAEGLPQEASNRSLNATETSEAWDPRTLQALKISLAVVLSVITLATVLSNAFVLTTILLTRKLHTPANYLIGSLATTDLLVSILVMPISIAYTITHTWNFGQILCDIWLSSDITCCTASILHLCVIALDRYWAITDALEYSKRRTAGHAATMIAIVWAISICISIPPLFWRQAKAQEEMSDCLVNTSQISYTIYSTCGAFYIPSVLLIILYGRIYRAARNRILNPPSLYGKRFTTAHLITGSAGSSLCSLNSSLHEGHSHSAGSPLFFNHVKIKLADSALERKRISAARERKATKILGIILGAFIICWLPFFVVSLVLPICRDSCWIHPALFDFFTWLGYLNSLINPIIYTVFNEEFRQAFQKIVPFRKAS
T3 sequence (P47898 whole entry): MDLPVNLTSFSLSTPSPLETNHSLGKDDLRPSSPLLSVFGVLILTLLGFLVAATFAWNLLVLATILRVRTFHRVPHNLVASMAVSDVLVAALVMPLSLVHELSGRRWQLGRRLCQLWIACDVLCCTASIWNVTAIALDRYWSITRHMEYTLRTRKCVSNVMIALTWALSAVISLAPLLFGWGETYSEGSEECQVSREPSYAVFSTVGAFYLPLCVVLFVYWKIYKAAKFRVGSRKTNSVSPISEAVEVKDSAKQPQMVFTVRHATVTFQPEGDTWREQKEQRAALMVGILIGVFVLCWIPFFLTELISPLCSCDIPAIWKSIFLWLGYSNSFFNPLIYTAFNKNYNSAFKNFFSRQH

On to `CCn1ncc(CN2CCN(c3cccnc3N3CCC(O)CC3)CC2)c1C.Cl` [Example 1, 3′-[4-(1-Ethyl-5-methyl-1H-pyrazol-4-ylmethyl)-piperazin-1-yl]-3,4,5,6-tetrahydro-2H-[1,2]bipyridinyl-4-ol hydrochloride], for which the Ki was 1.84 µM in assay [1], above 8.36 µM in assay [2] and 4.55 µM in assay [3].

In general, Ki refers to a measure of affinity in units of concentration, obtained from inhibition or displacement.
